Paper PMC2682197, “Mycobacterium tuberculosis Universal Stress Protein Rv2623 Regulates Bacillary Growth by ATP-Binding: Requirement for Establishing Chronic Persistent Infection” (PLoS Pathogens, 2009)

Target: Rv2623 (Mycobacterium tuberculosis, UniProt P9WFD7)
Sequence (P9WFD7 whole entry): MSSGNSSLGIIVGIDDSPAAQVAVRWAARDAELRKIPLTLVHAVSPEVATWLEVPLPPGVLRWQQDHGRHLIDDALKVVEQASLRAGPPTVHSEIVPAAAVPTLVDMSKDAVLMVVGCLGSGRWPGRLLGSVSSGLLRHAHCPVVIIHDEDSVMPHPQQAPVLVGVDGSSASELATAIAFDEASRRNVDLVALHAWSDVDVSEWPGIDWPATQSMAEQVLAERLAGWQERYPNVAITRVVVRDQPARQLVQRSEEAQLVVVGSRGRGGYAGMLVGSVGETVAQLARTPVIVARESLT

SMILES: Nc1ncnc2c1ncn2[C@@H]1O[C@H](COP(=O)(O)OP(=O)(O)O)[C@@H](O)[C@H]1O [ADP]
- HPLC of nucleotide extracted from purified protein by boiling: His6-Rv2623 co-purifies with both ATP and ADP
